The target of the experiment is PI3K delta (Homo sapiens, UniProt O00329). Put plainly: Luciferase-coupled chemiluminescence kinase assay (ATP consumption, KinaseGlo). Type of experiment: biochemical. On the procedure: Kinase activity and compound inhibition were investigated using one or more of the assay formats described below. The ATP concentrations used in the various assays were approximately equal to or less than the KM for each of the respective kinases. Dose-response experiments were performed using an intra-plate dilution scheme with 10 different inhibitor concentrations in a 384-well microtiter plate. IC50 values were calculated by nonlinear regression analysis using the four-parameter equation listed below:
Y=min+(max−min)/(1+(X/IC50)^N) Equation 1
Typically N should approximate unity. Curve fitting was performed using XLFit or ActivityBase.
Kinase activity is measured as the percent of ATP consumed following the kinase reaction using luciferase-luciferin-coupled chemiluminescence. […] Kinase reactions were initiated by combining test compounds, kinase, and ATP in a 20 μL volume (6 μL volume for 1536-well plate). The reaction mixture was incubated at ambient temperature for 2 h. Following the kinase reaction, a 20 μL (or […] for 1536-well plate) aliquot of KinaseGlo (Promega) was added and the chemiluminescence signal measured using an EnVision plate reader (Perkin Elmer).

Chain of PI3K delta (O00329 whole entry): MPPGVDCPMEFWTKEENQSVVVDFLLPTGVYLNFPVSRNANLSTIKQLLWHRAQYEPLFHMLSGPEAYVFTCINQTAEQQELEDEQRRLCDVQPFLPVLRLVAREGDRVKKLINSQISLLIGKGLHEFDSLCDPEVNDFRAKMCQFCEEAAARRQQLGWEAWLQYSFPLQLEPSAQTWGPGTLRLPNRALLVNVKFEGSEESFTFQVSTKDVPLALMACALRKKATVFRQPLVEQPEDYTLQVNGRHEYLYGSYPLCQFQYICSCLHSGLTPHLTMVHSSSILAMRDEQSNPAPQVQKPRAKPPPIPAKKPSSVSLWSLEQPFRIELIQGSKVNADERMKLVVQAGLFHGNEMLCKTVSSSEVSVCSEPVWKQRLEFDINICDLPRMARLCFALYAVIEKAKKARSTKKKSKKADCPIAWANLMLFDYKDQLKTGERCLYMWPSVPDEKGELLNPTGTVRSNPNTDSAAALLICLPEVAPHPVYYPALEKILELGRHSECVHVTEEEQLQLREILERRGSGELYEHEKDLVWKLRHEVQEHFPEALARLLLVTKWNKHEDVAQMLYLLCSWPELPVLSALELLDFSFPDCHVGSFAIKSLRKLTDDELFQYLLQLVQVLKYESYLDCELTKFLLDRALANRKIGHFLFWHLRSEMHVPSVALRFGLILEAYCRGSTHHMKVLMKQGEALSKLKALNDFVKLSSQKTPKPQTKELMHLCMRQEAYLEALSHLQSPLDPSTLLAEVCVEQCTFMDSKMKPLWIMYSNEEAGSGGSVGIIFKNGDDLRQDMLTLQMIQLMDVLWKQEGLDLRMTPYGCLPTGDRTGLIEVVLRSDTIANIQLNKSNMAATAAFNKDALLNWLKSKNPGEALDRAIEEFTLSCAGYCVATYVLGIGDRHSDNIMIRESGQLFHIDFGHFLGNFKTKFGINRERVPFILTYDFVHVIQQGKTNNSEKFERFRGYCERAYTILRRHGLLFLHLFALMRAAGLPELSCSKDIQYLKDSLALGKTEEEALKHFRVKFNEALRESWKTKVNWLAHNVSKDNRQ
Chain of PI3K delta (P27986 whole entry partner): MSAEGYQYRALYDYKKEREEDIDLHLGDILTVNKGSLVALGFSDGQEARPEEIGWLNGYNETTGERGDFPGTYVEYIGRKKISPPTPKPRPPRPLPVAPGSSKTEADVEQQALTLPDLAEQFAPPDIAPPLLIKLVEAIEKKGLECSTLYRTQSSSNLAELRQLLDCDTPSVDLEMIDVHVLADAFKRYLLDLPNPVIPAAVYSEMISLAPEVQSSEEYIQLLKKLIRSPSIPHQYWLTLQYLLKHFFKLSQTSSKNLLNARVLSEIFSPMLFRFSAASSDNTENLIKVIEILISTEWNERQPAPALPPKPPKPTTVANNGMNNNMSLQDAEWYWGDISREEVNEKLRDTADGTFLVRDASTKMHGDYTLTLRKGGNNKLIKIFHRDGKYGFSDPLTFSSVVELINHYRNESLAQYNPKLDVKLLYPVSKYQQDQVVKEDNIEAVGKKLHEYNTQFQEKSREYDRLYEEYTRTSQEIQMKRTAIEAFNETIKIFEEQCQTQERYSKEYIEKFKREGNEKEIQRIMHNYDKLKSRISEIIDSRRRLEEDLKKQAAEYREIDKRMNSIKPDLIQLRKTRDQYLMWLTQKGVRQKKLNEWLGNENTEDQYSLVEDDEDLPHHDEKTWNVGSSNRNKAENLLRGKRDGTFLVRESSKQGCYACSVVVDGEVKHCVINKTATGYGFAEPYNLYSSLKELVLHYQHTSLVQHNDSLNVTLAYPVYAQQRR

Consider `CCNC(=O)c1nc2c(N3CCC4(CC3)C(=O)Nc3ccccc34)ncnc2n1C` [Compound 32, N-ethyl-9-methyl-6-(2-oxo-1,2-dihydro-1H-spiro[indole-3,4′-piperidin]-1′-yl)-9H-purine-8-carboxamide], for which the IC50 lay within 0.05 to 0.25 µM.

The molecule `Cn1c(C(=O)NCc2ccc(F)cc2F)nc2c(N3CCC4(CC3)C(=O)Nc3ccccc34)ncnc21` [Compound 33, N-[(2,4-difluorophenyl)methyl]-9-methyl-6-(2-oxo-1,2-dihydro-1′H-spiro[indole-3,4′-piperidin]-1′-yl)-9H-purine-8-carboxamide] showed an IC50 of 0.5 to 1.5 µM.

On to `CC(C)CNC(=O)c1nc2c(N3CCC4(CC3)C(=O)Nc3ccccc34)ncnc2n1C` [Compound 34, 9-methyl-N-(2-methylpropyl)-6-(2-oxo-1,2-dihydro-1′H-spiro[indole-3,4′-piperidin]-1′-yl)-9H-purine-8-carboxamide], for which the IC50 is less than 0.05 µM. As for `Cn1c(C(=O)N2CCCC2)nc2c(N3CCC4(CC3)C(=O)Nc3ccccc34)ncnc21` [Compound 35, 1′-[9-methyl-8-(pyrrolidin-1-ylcarbonyl)-9H-purin-6-yl]spiro[indole-3,4′-piperidin]-2(1H)-one], the IC50 fell in the range of 0.5 to 1.5 µM. The molecule `CCCNC(=O)c1nc2c(N3CCC4(CC3)C(=O)Nc3ccccc34)ncnc2n1C` [Compound 36, 9-methyl-6-(2-oxo-1,2-dihydro-1′H-spiro[indole-3,4′-piperidin]-1′-yl)-N-propyl-9H-purine-8-carboxamide] came in with a 50% inhibitory concentration (IC50) of 0.05 to 0.25 µM. The value for `CCCCCCNC(=O)c1nc2c(N3CCC4(CC3)C(=O)Nc3ccccc34)ncnc2n1C` [Compound 37, N-hexyl-9-methyl-6-(2-oxo-1,2-dihydro-1′H-spiro[indole-3,4′-piperidin]-1′-yl)-9H-purine-8-carboxamide] was 0.5 to 1.5 µM; that for `CC(C)N(C)C(=O)c1nc2c(N3CCC4(CC3)C(=O)Nc3ccccc34)ncnc2n1C` [Compound 38, N,9-dimethyl-N-(1-methylethyl)-6-(2-oxo-1,2-dihydro-1′H-spiro[indole-3,4′-piperidin]-1′-yl)-9H-purine-8-carboxamide] was 0.5 to 1.5 µM; that for `CN(CCC#N)C(=O)c1nc2c(N3CCC4(CC3)C(=O)Nc3ccccc34)ncnc2n1C` [Compound 39, N-(2-cyanoethyl)-N,9-dimethyl-6-(2-oxo-1,2-dihydro-1′H-spiro[indole-3,4′-piperidin]-1′-yl)-9H-purine-8-carboxamide] was 0.5 to 1.5 µM. The value for `CC(C)CCNC(=O)c1nc2c(N3CCC4(CC3)C(=O)Nc3ccccc34)ncnc2n1C` [Compound 40, 9-methyl-N-(3-methylbutyl)-6-(2-oxo-1,2-dihydro-1′H-spiro[indole-3,4′-piperidin]-1′-yl)-9H-purine-8-carboxamide] was 0.05 to 0.25 µM; that for `Cn1c(C(=O)N2CC(O)C2)nc2c(N3CCC4(CC3)C(=O)Nc3ccccc34)ncnc21` [Compound 41, 1′-{8-[(3-hydroxyazetidin-1-yl)carbonyl]-9-methyl-9H-purin-6-yl}spiro[indole-3,4′-piperidin]-2(1H)-one] was 0.05 to 0.25 µM.

Turning to `Cn1c(C(=O)NCCCCO)nc2c(N3CCC(n4c(=O)[nH]c5ccccc54)CC3)ncnc21` [Compound 42, N-(4-hydroxybutyl)-9-methyl-6-[4-(2-oxo-2,3-dihydro-1H-benzimidazol-1-yl)piperidin-1-yl]-9H-purine-8-carboxamide], the IC50 lay in the range of 0.05 to 0.25 µM.

Take `Cn1c(C(=O)NC2CC2)nc2c(N3CCC(n4c(=O)[nH]c5ccccc54)CC3)ncnc21` [Compound 43, N-cyclopropyl-9-methyl-6-[4-(2-oxo-2,3-dihydro-1H-benzimidazol-1-yl)piperidin-1-yl]-9H-purine-8-carboxamide]: the IC50 fell in the range of 0.05 to 0.25 µM.

`Cn1c(C(=O)NC2CCC2)nc2c(N3CCC(n4c(=O)[nH]c5ccccc54)CC3)ncnc21` [Compound 44, N-cyclobutyl-9-methyl-6-[4-(2-oxo-2,3-dihydro-1H-benzimidazol-1-yl)piperidin-1-yl]-9H-purine-8-carboxamide] came in with an IC50 of 0.05 to 0.25 µM. On to `CCCCNC(=O)c1nc2c(N3CCC(n4c(=O)[nH]c5ccccc54)CC3)ncnc2n1C` [Compound 45, N-butyl-9-methyl-6-[4-(2-oxo-2,3-dihydro-1H-benzimidazol-1-yl)piperidin-1-yl]-9H-purine-8-carboxamide], for which the IC50 was less than 0.05 µM. The value for `Cn1c(C(=O)NCc2ccco2)nc2c(N3CCC(n4c(=O)[nH]c5ccccc54)CC3)ncnc21` [Compound 46, N-(furan-2-ylmethyl)-9-methyl-6-[4-(2-oxo-2,3-dihydro-1H-benzimidazol-1-yl)piperidin-1-yl]-9H-purine-8-carboxamide] was 0.05 to 0.25 µM; that for `Cn1c(C(=O)NC2CCc3ccccc32)nc2c(N3CCC(n4c(=O)[nH]c5ccccc54)CC3)ncnc21` (centres unmarked) [Compound 47, N-(2,3-dihydro-1H-inden-1-yl)-9-methyl-6-[4-(2-oxo-2,3-dihydro-1H-benzimidazol-1-yl)piperidin-1-yl]-9H-purine-8-carboxamide] was 0.05 to 0.25 µM. Consider `Cn1c(C(=O)NCCCO)nc2c(N3CCC(n4c(=O)[nH]c5ccccc54)CC3)ncnc21` [Compound 48, N-(3-hydroxypropyl)-9-methyl-6-[4-(2-oxo-2,3-dihydro-1H-benzimidazol-1-yl)piperidin-1-yl]-9H-purine-8-carboxamide], for which the 50% inhibitory concentration (IC50) is 0.05 to 0.25 µM. The value for `Cn1c(C(=O)NCc2cccs2)nc2c(N3CCC(n4c(=O)[nH]c5ccccc54)CC3)ncnc21` [Compound 49, 9-methyl-6-[4-(2-oxo-2,3-dihydro-1H-benzimidazol-1-yl)piperidin-1-yl]-N-(2-thienylmethyl)-9H-purine-8-carboxamide] was 0.05 to 0.25 µM.

The molecule `Cn1c(C(=O)NCc2ccc3c(c2)OCO3)nc2c(N3CCC(n4c(=O)[nH]c5ccccc54)CC3)ncnc21` [Compound 50, N-(1,3-benzodioxol-5-ylmethyl)-9-methyl-6-[4-(2-oxo-2,3-dihydro-1H-benzimidazol-1-yl)piperidin-1-yl]-9H-purine-8-carboxamide] came in with an IC50 of 0.25 to 0.5 µM. The value for `Cn1c(C(=O)NCCc2ccccn2)nc2c(N3CCC(n4c(=O)[nH]c5ccccc54)CC3)ncnc21` [Compound 51, 9-methyl-6-[4-(2-oxo-2,3-dihydro-1H-benzimidazol-1-yl)piperidin-1-yl]-N-(2-pyridin-2-ylethyl)-9H-purine-8-carboxamide] was 0.5 to 1.5 µM; that for `Cn1c(C(=O)NCc2ccncc2)nc2c(N3CCC(n4c(=O)[nH]c5ccccc54)CC3)ncnc21` [Compound 52, 9-methyl-6-[4-(2-oxo-2,3-dihydro-1H-benzimidazol-1-yl)piperidin-1-yl]-N-(pyridin-4-ylmethyl)-9H-purine-8-carboxamide] was 0.05 to 0.25 µM; that for `CC(NC(=O)c1nc2c(N3CCC(n4c(=O)[nH]c5ccccc54)CC3)ncnc2n1C)c1ccccc1` (centres unmarked) [Compound 53, 9-methyl-6-[4-(2-oxo-2,3-dihydro-1H-benzimidazol-1-yl)piperidin-1-yl]-N-(1-phenylethyl)-9H-purine-8-carboxamide] was 0.5 to 1.5 µM.

Regarding `CC(C)NC(=O)c1nc2c(N3CCC(n4c(=O)[nH]c5ccccc54)CC3)ncnc2n1C` [Compound 54, 9-methyl-N-(1-methylethyl)-6-[4-(2-oxo-2,3-dihydro-1H-benzimidazol-1-yl)piperidin-1-yl]-9H-purine-8-carboxamide], the IC50 was 0.05 to 0.25 µM.

The values above are taken from US20140058103A1, “Inhibitors of PI3K-Delta and Methods of Their Use and Manufacture” (Exelixis, Inc., priority 2010, published 2014).
